Paper PMC12888861, “Antibacterial activity of enmetazobactam against Acinetobacter spp.: a molecular dissection of mechanism of action and resistance determinants” (Antimicrobial Agents and Chemotherapy, 2025)

Test system: carbapenem-susceptible A. baumannii isolates (n = 54)
Test: MIC, broth microdilution (EUCAST), carbapenem-susceptible A. baumannii isolates
Type: cell-based, Acinetobacter baumannii
Settings: for MIC: in combinations ETZ fixed at 8 mg/L
Description: The bacterial strains used in this study comprised 208 clinical isolates from the Spanish National Acinetobacter spp. 2020 Multicenter Collection, which was previously characterized in detail by our research group, including whole-genome sequencing, phylogenetics studies, clonal dynamics, and resistance mechanisms ([2], [29]). Additionally, a collection of A. baumannii ATCC 17978 transformants coding the blaOXA-23, blaOXA-24/40, blaOXA-51, blaOXA-58, blaOXA-143, and blaOXA-201 genes, previously constructed and described by our group ([30]), was used to determine the activity of enmetazobactam against strains carrying the main CHDLs of A. baumannii.
The antimicrobial susceptibility of the 208 Acinetobacter spp. isolates was assessed using the broth microdilution method, as described in the European Committee on Antimicrobial Susceptibility Testing (EUCAST) v.15 guidelines (http://www.eucast.org/clinical_breakpoints). […] MICs for enmetazobactam alone were assessed as well. […] Subsequently, MIC testing was also conducted with a collection of A. baumannii ATCC 17978 transformants expressing clinically relevant OXA-like carbapenemase genes.
The A. baumannii ATCC 19606 strain was used as the reference strain in all susceptibility experiments, in duplicate assays. Antibiotics were purchased from Sigma-Aldrich, except enmetazobactam and durlobactam, which were obtained from Advanz Pharma and MedChemExpress, respectively.

[1] = Acinetobacter baumannii, carbapenem-susceptible A. baumannii isolates (n = 54), ETZ fixed 8 mg/L in combinations
[2] = […], ETZ fixed 8 mg/L in combinations

CO/N=C(\C(=O)N[C@@H]1C(=O)N2C(C(=O)[O-])=C(C[N+]3(C)CCCC3)CS[C@H]12)c1csc(N)n1 [cefepime]
MIC distribution 0.12: 0 | MIC (Acinetobacter baumannii, isolate Ab1, ST 164, ADC-6, OXA-91): 2 µg/mL | MIC (Acinetobacter baumannii, isolate Ab11, ST 239, ADC-2, OXA-51): 2 µg/mL | MIC (Acinetobacter baumannii, isolate Ab34, ST 2182, ADC-2, OXA-130): 2 µg/mL | MIC (Acinetobacter baumannii, isolate Ab38, ST 866, ADC-2, OXA-385): 8 µg/mL | MIC (Acinetobacter baumannii, isolate Ab40, ST 2176, ADC-2, OXA-64): 2 µg/mL | MIC (Acinetobacter baumannii, isolate Ab50, ST 2176, ADC-2, OXA-64): 2 µg/mL | MIC (Acinetobacter baumannii, isolate Ab57, ST 1470, ADC-58, OXA-106): 2 µg/mL | MIC (Acinetobacter baumannii, isolate Ab58, ST 6, ADC-2, OXA-94): 4 µg/mL | MIC (Acinetobacter baumannii, isolate Ab61, ST 1639, ADC-7, OXA-64): 1 µg/mL | MIC (Acinetobacter baumannii, isolate Ab62, ST 265, ADC-2, OXA-91): 1 µg/mL | MIC (Acinetobacter baumannii, isolate Ab67, ST 1, ADC-11, OXA-69): 2 µg/mL | MIC (Acinetobacter baumannii, isolate Ab79, ST 106, ADC-11, OXA-78): 1 µg/mL | MIC (Acinetobacter baumannii, isolate Ab80, ST 2182, ADC-6, OXA-208): 1 µg/mL | MIC (Acinetobacter baumannii, isolate Ab81, ST 25, ADC-79, OXA-64): 2 µg/mL | MIC (Acinetobacter baumannii, isolate Ab93, ST 25, ADC-79, OXA-64): 2 µg/mL | MIC (Acinetobacter baumannii, isolate Ab95, ST 582, ADC-5, OXA-317): 2 µg/mL | MIC (Acinetobacter baumannii, isolate Ab96, ST 582, ADC-5, OXA-317): 1 µg/mL | MIC (Acinetobacter baumannii, isolate Ab100, ST 145, ADC-58, OXA-343): 2 µg/mL | MIC (Acinetobacter baumannii, isolate Ab110, ST 1623, ADC-3, OXA-70): 8 µg/mL | MIC (Acinetobacter baumannii, isolate Ab112, ST 193, ADC-like, OXA-120): 0.5 µg/mL | MIC (Acinetobacter baumannii, isolate Ab124, ST 2176, ADC-2, OXA-64): 1 µg/mL | MIC (Acinetobacter baumannii, isolate Ab127, ST 2176, ADC-2, OXA-64): 2 µg/mL | MIC (Acinetobacter baumannii, isolate Ab128, ST 2176, ADC-2, OXA-64): 1 µg/mL | MIC (Acinetobacter baumannii, isolate Ab130, ST 32, ADC-79, OXA-100): 4 µg/mL | MIC (Acinetobacter baumannii, isolate Ab131, ST 687, ADC-like, OXA-208): 0.5 µg/mL | MIC (Acinetobacter baumannii, isolate Ab132, ST 1112, ADC-79, OXA-89): 4 µg/mL | MIC (Acinetobacter baumannii, isolate Ab136, ST 2183, ADC-like, OXA-66): 2 µg/mL | MIC (Acinetobacter baumannii, isolate Ab139, ST 54, ADC-like, OXA-365): 2 µg/mL | MIC (Acinetobacter baumannii, isolate Ab142, ST 1, ADC-like, OXA-69): 16 µg/mL | MIC (Acinetobacter baumannii, isolate Ab143, ST 1328, ADC-76, OXA-408): 2 µg/mL | MIC (Acinetobacter baumannii, isolate Ab149, ST 1112, ADC-6, OXA-407): 2 µg/mL | MIC (Acinetobacter baumannii, isolate Ab150, ST 2184, ADC-like, OXA-64): 2 µg/mL | MIC (Acinetobacter baumannii, isolate Ab152, ST 132, ADC-2, OXA-120): 2 µg/mL | MIC (Acinetobacter baumannii, isolate Ab158, ST 2034, ADC-2, OXA-217): 0.5 µg/mL | MIC (Acinetobacter baumannii, isolate Ab163, ST 132, ADC-2, OXA-120): 0.5 µg/mL | MIC (Acinetobacter baumannii, isolate Ab167, ST 1623, ADC-like, OXA-345): 1 µg/mL | MIC (Acinetobacter baumannii, isolate Ab168, ST 1470, ADC-75, OXA-402): 1 µg/mL | MIC (Acinetobacter baumannii, isolate Ab170, ST 2110, ADC-4, OXA-338): 2 µg/mL | MIC (Acinetobacter baumannii, isolate Ab172, ST 2185, ADC-5, OXA-217): 1 µg/mL | MIC (Acinetobacter baumannii, isolate Ab185, ST 2, ADC-26, OXA-66): 4 µg/mL | MIC (Acinetobacter baumannii, isolate Ab187, ST 105, ADC-2, OXA-430): 0.5 µg/mL | MIC (Acinetobacter baumannii, isolate Ab188, ST 203, ADC-6, OXA-217, PDC-1): 0.5 µg/mL | MIC (Acinetobacter baumannii, isolate Ab189, ST 1405, ADC-3, OXA-120): 1 µg/mL | MIC (Acinetobacter baumannii, isolate Ab190, ST 2186, ADC-6, OXA-413): 1 µg/mL | MIC (Acinetobacter baumannii, isolate Ab193, ST 164, ADC-6, OXA-91): 1 µg/mL | MIC (Acinetobacter baumannii, isolate Ab195, ST 1, ADC-11, OXA-69): 2 µg/mL | MIC (Acinetobacter baumannii, isolate Ab200, ST 1336, ADC-2, OXA-51): 2 µg/mL | MIC (Acinetobacter baumannii, isolate Ab202, ST 1, ADC-11, OXA-69): 2 µg/mL | MIC (Acinetobacter baumannii, isolate Ab203, ST 221, ADC-6, OXA-88): 1 µg/mL | MIC (Acinetobacter baumannii, isolate Ab206, ST 2187, ADC-58, OXA-69): 1 µg/mL | MIC (Acinetobacter baumannii, isolate Ab209): 1 µg/mL | MIC (Acinetobacter baumannii, isolate Ab213): 1 µg/mL | MIC (Acinetobacter baumannii, isolate Ab218): 2 µg/mL | MIC (Acinetobacter baumannii, isolate Ab220): 0.5 µg/mL | MIC50 [1]: 4 µg/mL | MIC90 [1]: 8 µg/mL | MIC distribution 0.25 [2]: 0 | MIC distribution 0.5 [2]: 0 | MIC distribution 1 [2]: 13.0 | MIC distribution 2 [2]: 44.4 | MIC distribution 4 [2]: 87.0 | MIC distribution 8 [2]: 94.4 | MIC distribution 16 [2]: 98.1 | MIC distribution ≤0.06 [2]: 0 | MIC distribution ≥32 [2]: 100
